Measurements from ChEMBL document CHEMBL4476874, “Compounds for the modulation of myc activity” (2018).

Molecular target: Myc proto-oncogene protein (Homo sapiens, UniProt P01106)
Experiment: Inhibition of human c-Myc assessed as reduction in c-Myc/Max/Ebox DNA complex formation using pre-formed complex of c-Myc and biotinylated DNA containing single Ebox-sequence followed by compound addition and further addition of his6-tagged c-Max and incubated for 2 hrs by AlphaScreen assay

Myc proto-oncogene protein, sequence (P01106 whole entry): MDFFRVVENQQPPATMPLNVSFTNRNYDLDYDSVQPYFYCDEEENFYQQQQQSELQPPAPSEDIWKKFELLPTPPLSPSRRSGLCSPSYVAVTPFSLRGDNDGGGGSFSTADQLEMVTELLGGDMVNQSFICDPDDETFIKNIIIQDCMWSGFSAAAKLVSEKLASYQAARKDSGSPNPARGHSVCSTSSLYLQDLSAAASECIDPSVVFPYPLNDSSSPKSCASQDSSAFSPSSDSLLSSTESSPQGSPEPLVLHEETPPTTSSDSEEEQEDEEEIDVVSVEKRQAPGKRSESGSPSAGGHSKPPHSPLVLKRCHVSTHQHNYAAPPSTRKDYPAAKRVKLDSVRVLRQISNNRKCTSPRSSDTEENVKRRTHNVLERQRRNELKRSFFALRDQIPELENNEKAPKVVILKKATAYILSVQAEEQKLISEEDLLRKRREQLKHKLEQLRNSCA

IC50 [µM] | SMILES
> 10 | COCCNCCC(=O)Nc1sc2c(c1-c1nc3cc(-c4cccnc4OC)ccc3s1)CCNC2
< 0.3 | O=C(Nc1sc2c(c1-c1nc3ccccc3s1)CCNC2)C1CNC1
> 10 | CC(C)N1CCc2c(sc(NC(=O)CCNc3ccccc3)c2-c2nc3ccccc3s2)C1
> 10 | COCCNCCC(=O)Nc1sc2c(c1-c1nc3cc(-c4ccc5c(c4)OCO5)ccc3s1)CCNC2
1 to 10 | CCOc1ccc(-c2ccc3nc(-c4c(NC(=O)CCNCCOC)sc5c4CCNC5)sc3c2)cn1
0.3 to 1 | COCCNCCC(=O)Nc1sc2c(c1-c1nc3ccc(-c4ccc(C(=O)N(C)C)cc4F)cc3s1)CCNC2
> 10 | COCCNCCC(=O)Nc1sc2c(c1-c1nc3ccc(-c4cccc5cccnc45)cc3s1)CCNC2
0.3 to 1 | COCCNCCC(=O)Nc1sc2c(c1-c1nc3c(C)cccc3o1)CCNC2
1 to 10 | COCCNCCC(=O)Nc1sc2c(c1-c1nc3ccc(-c4cnn(Cc5ccccc5)c4)cc3s1)CCNC2
0.3 to 1 | O=C(CC1COCCN1)Nc1sc2c(c1-c1nc3ccccc3s1)CCNC2 (stereo unspecified)
< 0.3 | COc1ccc(-c2ccc3sc(-c4c(NC(=O)CCNC(C)C)sc5c4CCNC5)nc3c2)cc1
1 to 10 | CC(C)N1CCc2c(sc(NC(=O)CCNc3cccc(O)c3)c2-c2nc3ccccc3s2)C1
> 10 | COCCNCCC(=O)Nc1sc2c(c1-c1nc3ccc(-c4ccc5c(c4)OCO5)cc3s1)CCNC2
> 10 | CC(C)N1CCc2c(sc(NC(=O)CCNc3cccc(F)c3)c2-c2nc3ccccc3s2)C1
> 10 | COCCNCCC(=O)Nc1sc2c(c1-c1nc3ccc(-c4c(C)nn(C)c4C)cc3s1)CCNC2
1 to 10 | COCCNCCC(=O)Nc1sc2c(c1-c1nc3ccc(-c4cccc(C#N)c4)cc3s1)CCNC2
> 10 | COCCNCCC(=O)Nc1sc2c(c1-c1nc3ccc(-c4ccc(C)c(C#N)c4)cc3s1)CCNC2
> 10 | COCCNCCC(=O)Nc1sc2c(c1-c1nc3cc(-c4ccccc4S(C)(=O)=O)ccc3s1)CCNC2
> 10 | COCCNCCC(=O)Nc1sc2c(c1-c1nc3cc(-c4ccc(C)c(C#N)c4)ccc3s1)CCNC2
1 to 10 | COCCNCCC(=O)Nc1sc2c(c1-c1nc3cc(-c4ccc(C)nc4OC)ccc3s1)CCNC2
> 10 | COCCNCCC(=O)Nc1sc2c(c1-c1nc3ccc(-c4cccc(C(F)(F)F)c4)cc3s1)CCNC2
> 10 | COCCNCCC(=O)Nc1sc2c(c1-c1nc3ccc(-c4ccc5c(c4)NC(=O)CO5)cc3s1)CCNC2

IC50 [µM] | SMILES
> 10 | COCCNCCC(=O)Nc1sc2c(c1-c1nc3ccc(-c4cnc(N)c(C(F)(F)F)c4)cc3s1)CCNC2
1 to 10 | COCCNCCC(=O)Nc1sc2c(c1-c1nc3ccc(-c4cncc(OC)c4)cc3s1)CCNC2
1 to 10 | COCCNCCC(=O)Nc1sc2c(c1-c1nc3cc(-c4cnc(OC)c(OC)c4)ccc3s1)CCNC2
1 to 10 | CC(NCCC(=O)Nc1sc2c(c1-c1nc3ccccc3s1)CCN(C(C)C)C2)c1ccncc1 (stereo unspecified)
> 10 | CCOc1ncccc1-c1ccc2nc(-c3c(NC(=O)CCNCCOC)sc4c3CCNC4)sc2c1
1 to 10 | CNC(=O)Nc1ccc(-c2ccc3sc(-c4c(NC(=O)CCNCCOC)sc5c4CCNC5)nc3c2)cc1
1 to 10 | COCCNCCC(=O)Nc1sc2c(c1-c1nc3cc(-c4c(C)n[nH]c4C)ccc3s1)CCNC2
> 10 | COCCNCCC(=O)Nc1sc2c(c1-c1nc3ccc(-c4cnccc4OC)cc3s1)CCNC2
0.3 to 1 | O=C(CC1CCCN1)Nc1sc2c(c1-c1nc3ccccc3s1)CCNC2 (stereo unspecified)
> 10 | COCCNCCC(=O)Nc1sc2c(c1-c1nc3ccc(-c4ccccc4S(C)(=O)=O)cc3s1)CCNC2
1 to 10 | COCCNCCC(=O)Nc1sc2c(c1-c1nc3cc(-c4cccc(C(=O)N5CCN(C)CC5)c4)ccc3s1)CCNC2
1 to 10 | COCCNCCC(=O)Nc1sc2c(c1-c1nc3ccc(-c4cccnc4OC)cc3s1)CCNC2
1 to 10 | COCCNCCC(=O)Nc1sc2c(c1-c1nc3ccc(-c4cnc(OC)c(OC)c4)cc3s1)CCNC2
1 to 10 | COc1ccccc1-c1ccc2sc(-c3c(NC(=O)CCNC(C)C)sc4c3CCNC4)nc2c1
0.3 to 1 | COCCNCCC(=O)Nc1sc2c(c1-c1nc3cc(-c4ccc5cnn(C)c5c4)ccc3s1)CCNC2
> 10 | COCCNCCC(=O)Nc1sc2c(c1-c1nc3ccc(-c4ccc(OC(C)C)nc4)cc3s1)CCNC2
1 to 10 | COc1cccc(-c2ccc3sc(-c4c(NC(=O)CCNC(C)C)sc5c4CCNC5)nc3c2)c1
> 10 | CC(C)N1CCc2c(sc(NC(=O)CCN3CCc4ccccc4C3)c2-c2nc3ccccc3s2)C1
0.3 to 1 | CC(=O)Nc1ccc(-c2ccc3sc(-c4c(NC(=O)CCNC(C)C)sc5c4CCNC5)nc3c2)cc1
1 to 10 | CC(C)N1CCc2c(sc(NC(=O)CCNc3cccnc3)c2-c2nc3ccccc3s2)C1
> 10 | CCC(C)N(CCC(=O)Nc1sc2c(c1-c1nc3ccccc3s1)CCN(C(C)C)C2)C(=O)OC(C)(C)C (stereo unspecified)
1 to 10 | Cc1cc(C)c(CNCCC(=O)Nc2sc3c(c2-c2nc4ccccc4s2)CCN(C(C)C)C3)c(=O)[nH]1

IC50 [µM] | SMILES
> 10 | COCCNCCC(=O)Nc1sc2c(c1-c1nc3cc(-c4ccc(OC)c(OC)c4)ccc3s1)CCNC2
> 10 | CC(C)N1CCc2c(sc(NC(=O)CCNc3ccc(-c4nnn[nH]4)cc3)c2-c2nc3ccccc3s2)C1
> 10 | COCCNCCC(=O)Nc1sc2c(c1-c1nc3cc(-c4ccncc4Cl)ccc3s1)CCNC2
< 0.3 | COCCNCCC(=O)Nc1sc2c(c1-c1nc3cc(-c4ccc(N5CCNCC5)nc4)ccc3s1)CCNC2
> 10 | COCCNCCC(=O)Nc1sc2c(c1-c1nc3ccc(-c4cccnc4C)cc3s1)CCNC2
> 10 | COCCNCCC(=O)Nc1sc2c(c1-c1nc3ccc(-c4cnc(N5CCOCC5)nc4)cc3s1)CCNC2
> 10 | COCCNCCC(=O)Nc1sc2c(c1-c1nc3ccc(-c4c(C)n[nH]c4C)cc3s1)CCNC2
> 10 | COCCNCCC(=O)Nc1sc2c(c1-c1nc3ccc(-c4ccc(N5CCOCC5)nc4)cc3s1)CCNC2
> 10 | COCCNCCC(=O)Nc1sc2c(c1-c1nc3cc(-c4ccc(OC)nc4C)ccc3s1)CCNC2
> 10 | CNS(=O)(=O)c1ccccc1-c1ccc2sc(-c3c(NC(=O)CCNCCOC)sc4c3CCNC4)nc2c1
> 10 | COCCNCCC(=O)Nc1sc2c(c1-c1nc3ccc(-c4ccc(C)nc4OC)cc3s1)CCNC2
0.3 to 1 | CC(C)NCCC(=O)Nc1sc2c(c1-c1nc3cc(-c4ccccc4)ccc3s1)CCNC2
1 to 10 | COc1cccc(NCCC(=O)Nc2sc3c(c2-c2nc4ccccc4s2)CCN(C(C)C)C3)c1
1 to 10 | COCCNCCC(=O)Nc1sc2c(c1-c1nc3cc(-c4cccc5[nH]ncc45)ccc3s1)CCNC2
> 10 | COCCNCCC(=O)Nc1sc2c(c1-c1nc3ccc(-c4cncc(OCCOC)c4)cc3s1)CCNC2
1 to 10 | COCCNCCC(=O)Nc1sc2c(c1-c1nc3ccc(-c4ccc5ncnn5c4)cc3s1)CCNC2
< 0.3 | CC(C)NCCC(=O)Nc1sc2c(c1-c1nc3cc(-c4nn[nH]n4)ccc3s1)CCNC2
< 0.3 | CC(C)NCCC(=O)Nc1sc2c(c1-c1nc3cc(-n4cncn4)ccc3s1)CCNC2
< 0.3 | CC(C)NCCC(=O)Nc1sc2c(c1-c1nc3cc(C#N)ccc3s1)CCNC2
> 10 | COCCNCCC(=O)Nc1sc2c(c1-c1nc3ccc(-c4cccnc4F)cc3s1)CCNC2
> 10 | COCCNCCC(=O)Nc1sc2c(c1-c1nc3cc(-c4ccc5ncccc5c4)ccc3s1)CCNC2

SMILES | IC50 [µM]
CC(C)NCCC(=O)Nc1sc2c(c1-c1nc3cc(C4=CCNCC4)ccc3s1)CCNC2 | < 0.3
